Measured values taken from PMC11812184, “Antimicrobial triazinedione inhibitors of the translocase MraY–protein E interaction site: synergistic effects with bacitracin imply a new mechanism of action” (RSC Medicinal Chemistry, 2025).
In brackets after ≈: the same amount, converted by molar mass.

Experiments:
[1] = molecular target: T1, translocase MraY (phospho-MurNAc-pentapeptide translocase) (Escherichia coli, UniProt P0A6W3); experiment: continuous fluorescence assay, % inhibition at […], overexpressed membranes; type: biochemical
T1 construct: membranes containing overexpressed E. coli MraY

[2] = system: T2, Escherichia coli K12; experiment: microbe, parasite or virus in culture; design: broth microdilution growth inhibition, OD595, overnight; MIC50 = concentration reducing growth by 50%; conditions: MIC50, 50% growth reduction
T2 construct: K12
Experimental: (§1) P. fluorescens Pf-5, E. coli (TOP10 or C43), B. subtilis (W23) or M. flavus colonies were isolated from an agar plate and inoculated in 5 mL of Luria-Bertani broth overnight at 37 °C. E. coli C43/pET28a-mraY was grown in Luria-Bertani media containing 50 μg mL^−1 kanamycin. […] Serial dilutions of 125, 62.5, 31.25, 15.63, 7.82, 3.90, 1.95 and 0.97 μg mL^−1 test compound were prepared. 10 μL of water, MeOH and DMSO were added to separate wells to serve as a growth control. Each test condition was tested in triplicate. The 96-well plate was covered and incubated overnight at 30 or 37 °C. Optical density (OD595) was measured using a HIDEX Sense microplate reader 425–301. The inhibitor concentration which reduced the growth by 50% was measured as the MIC50 of the compound. The set of analogues were tested for antimicrobial activity against laboratory strains of E. coli K12, B. subtilis W23, and Pseudomonas fluorescens Pf-5.

[3] = system: T3, Bacillus subtilis W23; experiment: microbe, parasite or virus in culture; design: broth microdilution growth inhibition, OD595, overnight; MIC50 = concentration reducing growth by 50%; conditions: MIC50, 50% growth reduction
T3 construct: W23
Experimental: as §1

[4] = system: T4, Pseudomonas fluorescens Pf-5; experiment: microbe, parasite or virus in culture; design: broth microdilution growth inhibition, OD595, overnight; MIC50 = concentration reducing growth by 50%; conditions: PF5, MIC50, 50% growth reduction
T4 construct: Pf-5
Experimental: as §1

[5] = molecular target: T5, translocase MraY (phospho-MurNAc-pentapeptide translocase) (Escherichia coli, UniProt P0A6W3); experiment: biochemical; design: continuous fluorescence enhancement assay, dansyl-UDPMurNAc-pentapeptide to dansyl-lipid I, membranes overexpressing E. coli MraY
T5 construct: membranes containing overexpressed E. coli MraY
T5 sequence (P0A6W3 1-360): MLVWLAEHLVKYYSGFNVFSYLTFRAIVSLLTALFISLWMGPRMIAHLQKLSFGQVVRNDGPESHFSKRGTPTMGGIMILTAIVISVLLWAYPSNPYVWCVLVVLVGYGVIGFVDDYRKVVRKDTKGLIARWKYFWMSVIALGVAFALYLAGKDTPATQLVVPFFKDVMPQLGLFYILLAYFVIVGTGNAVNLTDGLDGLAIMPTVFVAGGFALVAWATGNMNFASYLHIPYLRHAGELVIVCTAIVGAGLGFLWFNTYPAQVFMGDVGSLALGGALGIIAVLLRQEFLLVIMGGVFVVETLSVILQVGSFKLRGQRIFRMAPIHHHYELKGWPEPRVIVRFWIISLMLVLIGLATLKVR
Experimental: UDP-MurNAc-L-Ala-γ-D-Glu-L-Lys-D-Ala-D-Ala was prepared enzymatically using the methods described by Lloyd et al.,[32] and was converted to UDP-MurNAc-L-Ala-γ-D-Glu-L-Lys(Nε-dansyl)-D-Ala-D-Ala using the method of Brandish et al.[5] The MraY-catalysed reaction was monitored on a HIDEX Sense microplate reader 425–301 (λex 340 nm, λem 530 nm). To monitor the formation of dansyl-lipid I, membranes containing overexpressed E. coli MraY (15 μL of 0.6 mg mL^−1 stock) were incubated with UDP-MurNAc-L-Ala-γ-D-Glu-L-Lys(Nε-dansyl)-D-Ala-D-Ala (25 μM), undecaprenyl phosphate (30 μM, from stock solution in […] Tris buffer pH 7.5 containing 2 mM β-mercaptoethanol, 1 mM MgCl2, 20% glycerol, 0.5% Triton X-100), in 100 mM Tris buffer pH 7.5 containing 25 mM MgCl2, in a total volume of 100 μL. Test compounds were assayed at 200 μM final concentration, in triplicate assays, and compound 6d was assayed at 25–200 μM concentration in triplicate assays. Tunicamycin (20 μM) was used as a positive control for enzyme inhibition assays. Membranes containing overexpressed E. coli R288L mutant MraY were prepared as described in Rodolis et al.[16] Radiochemical assays were carried out using membranes containing overexpressed E. coli MraY as described in Mihalyi et al.[19] The set of analogues were assayed against particulate E. coli MraY from overexpressed membranes, using a fluorescence enhancement assay with fluorescent substrate UDPMurNAc-L-Ala-γ-D-Glu-L-Lys(ε-N-dansyl)-D-Ala-D-Ala, used previously to assay MraY.[5,16,17]

[6] = molecular target: T1, translocase MraY (phospho-MurNAc-pentapeptide translocase); experiment: continuous fluorescence assay with dansyl-UDPMurNAc-pentapeptide, overexpressed membranes; type: biochemical
From the text: continuous fluorescence assay with dansyl-UDPMurNAc-pentapeptide, overexpressed membranes on translocase MraY (phospho-MurNAc-pentapeptide translocase) | highest enzyme inhibition shown by compound 6d.

CCCCCCCCn1c(=O)nc(NCCNC(=N)N)n(Cc2ccc(F)cc2)c1=O [7e]
inhibition at 200 µM [1]: 63%
MIC50 [2]: 16 µg/mL (≈ 36.9 µM)
MIC50 [3]: 4 µg/mL (≈ 9.23 µM)
MIC50 [4]: 32 µg/mL (≈ 73.8 µM)

CCCCCCCCn1c(=O)nc(NCCNC(=N)N)n(Cc2ccc([N+](=O)[O-])cc2)c1=O [7h]
inhibition at 200 µM [1]: 70%
MIC50 [2]: 64 µg/mL (≈ 139 µM)
MIC50 [3]: 32 µg/mL (≈ 69.5 µM)
MIC50 [4]: 256 µg/mL (≈ 556 µM)

CCCCCCCCn1c(=O)nc(NCCNC(=N)N)n(Cc2ccc(Cl)cc2)c1=O [7f]
inhibition at 200 µM ([5]; continuous fluorescence assay): 42%
MIC50 [2]: 8 µg/mL (≈ 17.8 µM)
MIC50 [3]: 8 µg/mL (≈ 17.8 µM)
MIC50 [4]: 32 µg/mL (≈ 71.1 µM)

CCCCCCCCn1c(=O)nc(NCCN)n(Cc2cccc(OC)c2)c1=O [6c]
inhibition at 200 µM ([5]; continuous fluorescence assay): 42%
MIC50 [2]: 64 µg/mL (≈ 159 µM)
MIC50 [3]: 32 µg/mL (≈ 79.3 µM)
MIC50 [4]: > 256 µg/mL

CCCCCCCCn1c(=O)nc(NCCN)n(Cc2ccc([N+](=O)[O-])cc2)c1=O [6h]
inhibition at 200 µM [1]: 63%
MIC50 [2]: 64 µg/mL (≈ 153 µM)
MIC50 [3]: 32 µg/mL (≈ 76.5 µM)
MIC50 [4]: > 256 µg/mL

CCCCCCCCn1c(=O)nc(NCCNC(=N)N)n(Cc2ccccc2OC)c1=O [7d]
inhibition at 200 µM [1]: 57%
MIC50 [2]: 16 µg/mL (≈ 35.9 µM)
MIC50 [3]: 4 µg/mL (≈ 8.98 µM)
MIC50 [4]: > 256 µg/mL

CCCCCCCCn1c(=O)nc(NCCNC(=N)N)n(Cc2ccc(Br)cc2)c1=O [7g]
inhibition at 200 µM [1]: 51%
MIC50 [2]: 16 µg/mL (≈ 32.4 µM)
MIC50 [3]: 4 µg/mL (≈ 8.09 µM)
MIC50 [4]: 256 µg/mL (≈ 518 µM)

CCCCCCCCn1c(=O)nc(NCCO)n(Cc2ccccc2)c1=O [compound 11]
inhibition at 200 µM ([5]; continuous fluorescence assay): 39%
MIC50 [2]: > 256 µg/mL
MIC50 [3]: > 256 µg/mL

CCCCCCCCn1c(=O)nc(NCCN)n(Cc2ccc(Cl)cc2)c1=O [6f]
inhibition at 200 µM ([5]; continuous fluorescence assay): 15%
MIC50 [2]: 8 µg/mL (≈ 19.6 µM)
MIC50 [3]: 4 µg/mL (≈ 9.81 µM)
MIC50 [4]: 64 µg/mL (≈ 157 µM)

CCCCCCCCn1c(=O)nc(NCCN)n(Cc2ccccc2OC)c1=O [6d]
IC50 [6]: 48 µM
inhibition at 200 µM ([5]; read-out: % MraY inhibition @200 μM): 80%
MIC50 [2]: 64 µg/mL (≈ 159 µM)
MIC50 [3]: 32 µg/mL (≈ 79.3 µM)
MIC50 [4]: > 256 µg/mL

CCCCCCCCn1c(=O)nc(NCCN)n(Cc2ccc(F)cc2)c1=O [6e]
inhibition at 200 µM ([5]; continuous fluorescence assay): 35%
MIC50 [2]: 64 µg/mL (≈ 163 µM)
MIC50 [3]: 32 µg/mL (≈ 81.7 µM)
MIC50 [4]: 128 µg/mL (≈ 327 µM)

CCCCCCCCn1c(=O)nc(NCCN)n(C(CCc2ccccc2)c2ccccc2)c1=O (stereo not shown) [compound 13, 13]
inhibition at 200 µM [1]: 64%
MIC50 [2]: 256 µg/mL (≈ 536 µM)
MIC50 [3]: 128 µg/mL (≈ 268 µM)

CCCCCCCCn1c(=O)nc(NCCNC(=N)N)n(Cc2ccc(OC)cc2)c1=O [7b]
inhibition at 200 µM ([5]; continuous fluorescence assay): 48%
MIC50 [2]: 16 µg/mL (≈ 35.9 µM)
MIC50 [3]: 2 µg/mL (≈ 4.49 µM)
MIC50 [4]: 32 µg/mL (≈ 71.8 µM)

CCCCCCCCn1c(=O)nc(NCCNC(=N)N)n(Cc2ccc(C(F)(F)F)cc2)c1=O [7j]
inhibition at 200 µM ([5]; continuous fluorescence assay): 43%
MIC50 [2]: 4 µg/mL (≈ 8.27 µM)
MIC50 [3]: 1 µg/mL (≈ 2.07 µM)
MIC50 [4]: 16 µg/mL (≈ 33.1 µM)

CCCCCCCCn1c(=O)nc(NCCNC(N)=O)n(Cc2ccccc2)c1=O [compound 12]
inhibition at 200 µM ([5]; continuous fluorescence assay): 39%
MIC50 [2]: 64 µg/mL (≈ 154 µM)
MIC50 [3]: 128 µg/mL (≈ 307 µM)

CCCCCCCCn1c(=O)nc(NCCN)n(Cc2ccccc2)c1=O [6a]
inhibition at 200 µM ([5]; continuous fluorescence assay): 36%
MIC50 [2]: 16 µg/mL (≈ 42.8 µM)
MIC50 [3]: 8 µg/mL (≈ 21.4 µM)
MIC50 [4]: 64 µg/mL (≈ 171 µM)

CCCCCCCCn1c(=O)nc(NCCN)n(Cc2ccc(Br)cc2)c1=O [6g]
inhibition at 200 µM [1]: 68%
MIC50 [2]: 16 µg/mL (≈ 35.4 µM)
MIC50 [3]: 16 µg/mL (≈ 35.4 µM)
MIC50 [4]: 64 µg/mL (≈ 141 µM)

CCCCCCCCn1c(=O)nc(NCCN)n(Cc2ccc(OC)cc2)c1=O [6b]
inhibition at 200 µM ([5]; continuous fluorescence assay): 50%
MIC50 [2]: 16 µg/mL (≈ 39.7 µM)
MIC50 [3]: 8 µg/mL (≈ 19.8 µM)
MIC50 [4]: 32 µg/mL (≈ 79.3 µM)

CCCCCCCCn1c(=O)nc(NCCNC(=N)N)n(Cc2ccccc2)c1=O [7a]
inhibition at 200 µM ([5]; continuous fluorescence assay): 41%
MIC50 [2]: 16 µg/mL (≈ 38.5 µM)
MIC50 [3]: 8 µg/mL (≈ 19.3 µM)
MIC50 [4]: 32 µg/mL (≈ 77 µM)

CCCCCCCCn1c(=O)nc(NCCN)n(Cc2ccc(C(F)(F)F)cc2)c1=O [6j]
inhibition at 200 µM [1]: 59%
MIC50 [2]: 64 µg/mL (≈ 145 µM)
MIC50 [3]: 32 µg/mL (≈ 72.5 µM)
MIC50 [4]: > 256 µg/mL

CCCCCCCCn1c(=O)nc(NCCNC(=N)N)n(Cc2cccc(OC)c2)c1=O [7c]
inhibition at 200 µM [1]: 57%
MIC50 [2]: 16 µg/mL (≈ 35.9 µM)
MIC50 [3]: 4 µg/mL (≈ 8.98 µM)
MIC50 [4]: 32 µg/mL (≈ 71.8 µM)
